In article PMC9558907, “Synthesis and pharmacological evaluation of newly detected synthetic cannabinoid receptor agonists AB-4CN-BUTICA, MMB-4CN-BUTINACA, MDMB-4F-BUTICA, MDMB-4F-BUTINACA and their analogs” (Frontiers in Psychiatry, 2022):

Legend:
human CB2 [1] = molecular target: T1, human CB2 (Homo sapiens, UniProt P34972); experiment: competitive radioligand binding assay, displacement of [3H]CP55,940, HEK cell membranes; design: expressed in transfected cells; host or cells: HEK293 cells, P2 membrane preparation; conditions: [3H]CP55,940 1 nM
T1 sequence (P34972 whole entry): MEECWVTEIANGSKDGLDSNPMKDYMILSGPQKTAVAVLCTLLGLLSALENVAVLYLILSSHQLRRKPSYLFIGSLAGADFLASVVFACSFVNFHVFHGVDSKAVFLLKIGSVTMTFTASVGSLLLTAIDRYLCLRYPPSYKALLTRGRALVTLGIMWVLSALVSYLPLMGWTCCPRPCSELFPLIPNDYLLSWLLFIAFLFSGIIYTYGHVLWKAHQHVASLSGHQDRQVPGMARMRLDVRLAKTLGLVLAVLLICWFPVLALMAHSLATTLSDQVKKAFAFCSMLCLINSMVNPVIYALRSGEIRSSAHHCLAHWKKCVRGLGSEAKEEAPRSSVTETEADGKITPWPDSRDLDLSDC

human CB2 [2] = molecular target: T1, human CB2; experiment: fluorescence-based membrane potential assay (GIRK activation) in AtT20 cells; type: cell-based; design: expressed in transfected cells; host or cells: mouse AtT20 FlpIn cells; conditions: for hCB2 Emax ±SEM: AtT20-hCB2, normalised to 1 μM CP55,940; for EC50: hCB2 EC50, AtT20-hCB2, value in brackets after pEC50
human CB1 [3] = molecular target: T2, human CB1 (Homo sapiens, UniProt P21554); experiment: as above; type: cell-based; design: expressed in transfected cells; host or cells: mouse AtT20 FlpIn cells; conditions: for hCB1 Emax ±SEM: AtT20-hCB1, normalised to 1 μM CP55,940; for EC50: hCB1 EC50, AtT20-hCB1, value in brackets after pEC50
T2 sequence (P21554 whole entry): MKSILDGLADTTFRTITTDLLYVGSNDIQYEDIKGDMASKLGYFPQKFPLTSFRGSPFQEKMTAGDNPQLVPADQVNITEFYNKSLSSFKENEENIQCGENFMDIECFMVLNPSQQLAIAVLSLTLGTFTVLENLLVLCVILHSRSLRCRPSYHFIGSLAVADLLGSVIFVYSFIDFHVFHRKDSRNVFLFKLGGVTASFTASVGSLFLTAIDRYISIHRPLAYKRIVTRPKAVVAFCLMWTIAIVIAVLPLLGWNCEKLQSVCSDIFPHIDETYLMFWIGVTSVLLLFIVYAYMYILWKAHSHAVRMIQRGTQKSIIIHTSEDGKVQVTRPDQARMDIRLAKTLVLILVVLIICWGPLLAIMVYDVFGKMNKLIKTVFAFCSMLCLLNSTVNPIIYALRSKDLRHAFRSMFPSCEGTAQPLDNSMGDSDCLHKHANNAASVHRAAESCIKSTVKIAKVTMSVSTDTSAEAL

human CB1 [4] = molecular target: T2, human CB1; experiment: competitive radioligand binding assay, displacement of [3H]CP55,940, HEK cell membranes; design: expressed in transfected cells; host or cells: HEK293 cells, P2 membrane preparation; conditions: [3H]CP55,940 1 nM
CB2 = tested on: CB2; design: method as in PMID 26134475; conditions: cited from earlier work
CB1 = tested on: CB1; design: method as in PMID 26134475; conditions: cited from earlier work
[5] = hCB2 Ki, value in brackets after pKi
[6] = hCB1 Ki, value in brackets after pKi
[7] = hCB1 pKi ±SEM, mean ± SEM of 3 to 6 independent experiments

## COC(=O)[C@@H](NC(=O)c1cn(CCCCF)c2ncccc12)C(C)C [Compound 38, methyl (1-(4-fluorobutyl)-1H-pyrrolo[2,3-b]pyridine-3-carbonyl)-L-valinate]
other
  melting point: 81 to 82 °C
Human CB2 [1]; [5]
  Ki: 61 nM
Human CB2 [1]; hCB2 pKi ±SEM, mean ± SEM of 3 to 6 independent experiments
  Ki: 60.3 nM
Human CB2 [2]
  hCB2 Emax ±SEM: 114 ± 6 % CP55,940
  EC50: 49.6 nM
Human CB1 [3]
  hCB1 Emax ±SEM: 115 ± 16 % CP55,940
  EC50: 1390 nM
Human CB1 [4]; [6]
  Ki: 220 nM
Human CB1 [4]; [7]
  Ki: 224 nM

## CCCCCc1cc(O)c2c(c1)OC(C)(C)[C@@H]1CCC(C)=C[C@@H]21 [THC, Δ^9-tetrahydrocannabinol]
CB2
  effect at 30 μM at CB2: 32%
CB1
  Emax at CB1: 58%
  pEC50 at CB1: 6.76 ± 0.09

## CC(C)(C)[C@H](NC(=O)c1cn(CCCCC#N)c2ccccc12)C(N)=O [Compound 9, (S)-N-(1-amino-3,3-dimethyl-1-oxobutan-2-yl)-1-(4-cyanobutyl)-1H-indole-3-carboxamide]
other
  melting point: 101 to 103 °C
Human CB2 [1]; [5]
  Ki: 5.5 nM
Human CB2 [2]
  hCB2 Emax ±SEM: 106 ± 6 % CP55,940
  EC50: 10.4 nM
Human CB1 [3]
  hCB1 Emax ±SEM: 115 ± 5 % CP55,940
  EC50: 10.2 nM
Human CB1 [4]; [6]
  Ki: 6.8 nM

## CC(C)[C@H](NC(=O)c1cn(CCCCC#N)c2ccccc12)C(N)=O [Compound 5, (S)-N-(1-amino-3-methyl-1-oxobutan-2-yl)-1-(4-cyanobutyl)-1H-indole-3-carboxamide]
other
  melting point: 177 to 180 °C
Human CB2 [1]; [5]
  Ki: 603 nM
Human CB2 [2]
  hCB2 Emax ±SEM: 100 ± 2 % CP55,940
  EC50: 75.9 nM
Human CB1 [3]
  hCB1 Emax ±SEM: 111 ± 5 % CP55,940
  EC50: 400 nM
Human CB1 [4]; [6]
  Ki: 550 nM

## CC(C)(C)[C@H](NC(=O)c1cn(CCCCC#N)c2ncccc12)C(N)=O [Compound 15, (S)-N-(1-amino-3,3-dimethyl-1-oxobutan-2-yl)-1-(4-cyanobutyl)-1H-pyrrolo[2,3-b]pyridine-3-carboxamide]
other
  melting point: 93 to 94 °C
Human CB2 [1]; [5]
  Ki: 145 nM
Human CB2 [2]
  hCB2 Emax ±SEM: 96 ± 1 % CP55,940
  EC50: 6.09 nM
Human CB1 [3]
  hCB1 Emax ±SEM: 102 ± 4 % CP55,940
  EC50: 14 nM
Human CB1 [4]; [6]
  Ki: 155 nM

## COC(=O)[C@H](Cc1ccccc1)NC(=O)c1cn(CCCCC#N)c2ccccc12 [Compound 19, methyl (1-(4-cyanobutyl)-1H-indole-3-carbonyl)-L-phenylalaninate]
other
  melting point: 144 to 146 °C
Human CB2 [1]; [5]
  Ki: 8.71 nM
Human CB2 [2]
  hCB2 Emax ±SEM: 105 ± 3 % CP55,940
  EC50: 8.44 nM
Human CB1 [3]
  hCB1 Emax ±SEM: 109 ± 3 % CP55,940
  EC50: 35.5 nM
Human CB1 [4]; [6]
  Ki: 85.1 nM

## COC(=O)[C@@H](NC(=O)c1cn(CCCCF)c2ncccc12)C(C)(C)C [Compound 39, methyl (S)-2-(1-(4-fluorobutyl)-1H-pyrrolo[2,3-b]pyridine-3-carboxamido)-3,3-dimethylbutanoate]
other
  melting point: 56 to 58 °C
Human CB2 [1]; [5]
  Ki: 2.14 nM
Human CB2 [2]
  hCB2 Emax ±SEM: 95 ± 2 % CP55,940
  EC50: 3.88 nM
Human CB1 [3]
  hCB1 Emax ±SEM: 109 ± 3 % CP55,940
  EC50: 22.2 nM
Human CB1 [4]; [6]
  Ki: 107 nM

## NC(=O)[C@H](Cc1ccccc1)NC(=O)c1nn(CCCCF)c2ccccc12 [Compound 30, (S)-N-(1-amino-1-oxo-3-phenylpropan-2-yl)-1-(4-fluorobutyl)-1H-indazole-3-carboxamide]
other
  melting point: 100 to 103 °C
Human CB2 [1]; [5]
  Ki: 28.2 nM
Human CB2 [2]
  hCB2 Emax ±SEM: 101 ± 12 % CP55,940
  EC50: 8.35 nM
Human CB1 [3]
  hCB1 Emax ±SEM: 103 ± 3 % CP55,940
  EC50: 504 nM
Human CB1 [4]; [6]
  Ki: 1380 nM

## CC(C)(C)[C@H](NC(=O)c1cn(CCCCF)c2ncccc12)C(N)=O [Compound 32, (S)-N-(1-amino-3,3-dimethyl-1-oxobutan-2-yl)-1-(4-fluorobutyl)-1H-pyrrolo[2,3-b]pyridine-3-carboxamide]
other
  melting point: 95 to 96 °C
Human CB2 [1]; [5]
  Ki: 46 nM
Human CB2 [2]
  hCB2 Emax ±SEM: 108 ± 2 % CP55,940
  EC50: 4.99 nM
Human CB1 [3]
  hCB1 Emax ±SEM: 112 ± 6 % CP55,940
  EC50: 46 nM
Human CB1 [4]; [6]
  Ki: 1300 nM
Human CB1 [4]; [7]
  Ki: 1260 nM
